experiment: Photothermal stability of compound in HBSS buffer assessed as thermal relaxation half life measured after pre-illumination of compound to reach cis-isomer; format: physicochemical

Row | half-life | Structure (SMILES)
1 | 38 days | CC(C)(C)NCC(O)c1ccc(/N=N/c2ccccc2)c(Cl)c1 (racemic)
2 | 112 days | CC(C)(C)NCC(O)c1cc(Cl)c(/N=N/c2ccccc2)c(Cl)c1 (racemic)

The remaining lines, values behind:

Row | Structure (SMILES) | half-life
3 | CC(C)(C)NCC(O)c1cc(Cl)c(/N=N/c2ccccc2)c(C#N)c1 (racemic) | 11 days
4 | CC(C)(C)NCC(O)c1cc(Cl)c(/N=N/c2c(Cl)cccc2Cl)c(Cl)c1 (racemic) | 26 days
5 | CC(C)(C)NCC(O)c1ccc(/N=N/c2ccccc2)cc1 (racemic) | 29 days
